Measurements taken from ChEMBL document CHEMBL1134824, “Beta-D-glycosylamidines: potent, selective, and easily accessible 1-glycosidase inhibitors” (Bioorg Med Chem Lett, 2001).

Tests used:
[1] = Compound was evaluated for the basicity, pKa of the conjugate acids; assay type: physicochemical
[2] = Compound was evaluated for the selective and competitive inhibition of Beta-glucosidase from Almond; set-up: species or system Prunus dulcis
[3] = Compound was evaluated for the selective and competitive inhibition of Beta-galactosidase from Escherichia coli at 2.5 mM; NI = No inhibition
[4] = Compound was evaluated for the selective and competitive inhibition of Beta-glucosidase from Trichoderma viride
[5] = Compound was evaluated for the selective and competitive inhibition of beta-glucosidase from Aspergillus niger
[6] = Compound was evaluated for the selective and competitive inhibition of Alpha-glucosidase from Bacillus sp. at 2.5 mM; NI = No inhibition
[7] = Compound was evaluated for the selective and competitive inhibition of Beta-galactosidase from Aspergillus pulverulentus
[8] = Compound was evaluated for the selective and competitive inhibition of Alpha-glucosidase from Yeast at 2.5 mM; set-up: species or system Saccharomyces cerevisiae
[9] = Compound was evaluated for the selective and competitive inhibition of Alpha-glucosidase from Aspergillus niger at 2.5 mM; NI = No inhibition
[10] = Compound was evaluated for the selective and competitive inhibition of Beta-galactosidase from Aspergillus oryzae at 2.5 mM; NI = No inhibition
[11] = Compound was evaluated for the selective and competitive inhibition of Alpha-glucosidase from Aspergillus niger
[12] = Compound was evaluated for the selective and competitive inhibition of Alpha-glucosidase from Yeast; set-up: species or system Saccharomyces cerevisiae
[13] = Compound was evaluated for the selective and competitive inhibition of Beta-xylosidase from Aspergillus pulverulentus at 2.5 mM; NI = No inhibition
[14] = Compound was evaluated for the selective and competitive inhibition of Alpha-glucosidase from Bacillus sp.
[15] = Compound was evaluated for the selective and competitive inhibition of Beta-glucosidase from Aspergillus niger
[16] = biological target: T1, Exo-1,4-beta-xylosidase xlnD (Aspergillus niger, UniProt O00089); test: Compound was evaluated for the selective and competitive inhibition of Beta-xylosidase from Aspergillus pulverulentus
T1 sequence (O00089 whole entry): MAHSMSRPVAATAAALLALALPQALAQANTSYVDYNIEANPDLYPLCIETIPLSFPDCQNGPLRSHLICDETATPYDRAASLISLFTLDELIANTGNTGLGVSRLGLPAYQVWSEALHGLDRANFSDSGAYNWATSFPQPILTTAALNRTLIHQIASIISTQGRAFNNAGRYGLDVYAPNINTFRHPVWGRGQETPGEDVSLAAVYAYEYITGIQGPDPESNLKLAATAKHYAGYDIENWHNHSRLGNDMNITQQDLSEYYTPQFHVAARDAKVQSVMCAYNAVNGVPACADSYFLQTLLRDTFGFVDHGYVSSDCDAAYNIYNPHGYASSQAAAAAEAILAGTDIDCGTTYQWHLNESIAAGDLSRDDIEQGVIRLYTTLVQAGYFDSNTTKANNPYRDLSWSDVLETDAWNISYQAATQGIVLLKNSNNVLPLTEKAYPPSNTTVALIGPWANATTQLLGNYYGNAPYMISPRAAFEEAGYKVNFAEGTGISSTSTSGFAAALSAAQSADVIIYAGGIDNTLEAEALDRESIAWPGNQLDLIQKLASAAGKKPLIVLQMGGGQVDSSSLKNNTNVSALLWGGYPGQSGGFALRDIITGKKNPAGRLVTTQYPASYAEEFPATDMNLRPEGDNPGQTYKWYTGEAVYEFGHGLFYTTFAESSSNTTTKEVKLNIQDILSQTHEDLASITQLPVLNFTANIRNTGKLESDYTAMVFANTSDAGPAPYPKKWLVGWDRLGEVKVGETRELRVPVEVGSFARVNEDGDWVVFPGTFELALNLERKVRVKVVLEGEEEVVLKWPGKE

[17] = Compound was evaluated for the selective and competitive inhibition of Alpha-glucosidase from Yeast at 2.5 mM; NI = No inhibition; set-up: species or system Saccharomyces cerevisiae
[18] = Compound was evaluated for the selective and competitive inhibition of Beta-galactosidase from Aspergillus oryzae
[19] = Compound was evaluated for the selective and competitive inhibition of Beta-galactosidase from Escherichia coli
[20] = Compound was evaluated for the selective and competitive inhibition of Beta-glucosidase from Almond at 2.5 mM; NI = No inhibition; set-up: species or system Prunus dulcis
[21] = biological target: T1, Exo-1,4-beta-xylosidase xlnD; test: Compound was evaluated for the selective and competitive inhibition of beta-xylosidase from A. pulverulentus; NI = No inhibition at 2.5 mM; set-up: species or system Aspergillus pulverulentus

| SMILES | pKa [1] | Ki [2] [µM] | Ki [3] | Ki [4] [µM] | Ki [6] | Ki [9] | Ki [10] | Ki [11] [µM] | Ki [12] [µM] | Ki [15] [µM] | Ki [19] [µM] | further results |
| --- | --- | --- | --- | --- | --- | --- | --- | --- | --- | --- | --- | --- |
| NC1OC(CO)C(O)C(O)C1O (centres undefined) | 5.6 |  |  |  |  |  |  |  |  |  |  |  |
| NC1OCC(O)C(O)C1O (centres undefined) | 5.6 |  |  |  |  |  |  |  |  |  |  |  |
| Br.N=C(Cc1ccccc1)NC1OCC(O)C(O)C1O (centres undefined) |  | 1100 | Not Active | 13 | Not Active | Not Active | Not Active |  |  |  |  | Ki [5]: 11 µM; Ki [7]: 2.5 µM; Ki [8]: No inhibition |
| Br.N=C(Cc1ccccc1)NC1OC(CO)C(O)C(O)C1O (stereo in doubt; 1a) |  | 73 | Not Active | 0.13 |  | Not Active | Not Active | > 2500 | 21 | 0.094 |  | Ki [13]: Not Active; Ki [14]: > 2500 µM |
| Br.N=C(Cc1ccccc1)NC1OC(CO)C(O)C(O)C1O (stereo in doubt; 1b) |  | 41 |  | 390 | Not Active |  |  | 47 |  | 390 | 7.8 | Ki [16]: 1000 µM; Ki [17]: Not Active; Ki [18]: 2.4 µM |
| O=C(Cc1ccccc1)NC1OC(CO)C(O)C(O)C1O (centres undefined) |  |  |  | 770 | Not Active |  | Not Active | > 2500 | > 2500 | 770 | > 2000 | Ki [20]: Not Active; Ki [21]: No inhibition |
